In patent publication US5567694A, “17-Aryl and 17-heterocyclyl-5β,14β-androstane derivatives active on the cardiovascular system, processes for their preparation and pharmaceutical compositions containing same” (SIGMA-TAU Industrie Farmaceutiche Riunite S.p.A., priority 1992, dated 1996):

Assays:
[1] = biological target: Na^+,K^+ -ATPase; type: binding; details: ^3 H-ouabain displacement, purified Na^+,K^+ -ATPase receptor
Text: (§1) To test the affinity for the receptor site of the Na^+,K^+ -ATPase and the inhibitory activity on the enzyme, the following tests were used:
a) displacement of the specific ^3 H-ouabain binding from the Na^+,K^+ -ATPase receptor purified according to Jorghensen (Jorghensen P., BBA, 1974, 356, 36) and Erdmann ( Erdmann E. et al., Arzneim. Forsh., 1984, 34, 13 14);

[2] = biological target: Na^+,K^+ -ATPase; type: biochemical; design: unit not given here; details: hydrolysis of ^32 P-ATP, purified Na^+,K^+ -ATPase
Text: as §1
b) inhibition of the activity of the purified Na^+,K^+ -ATPase measured as % of hydrolysis of ^32 P-ATP in presence and in absence of the tested compound (Doucet A. et al., Am.

[3] = test system: spontaneous hypertensive rats of the Milan (MHS); assay: systolic blood pressure and heart rate in spontaneous hypertensive rats (MHS), indirect tail-cuff; type: in vivo, rat; details: for SBP (systolic blood pressure) / HR (heart rate): MHS rats, n = 7, 20 mg/Kg/os daily for ten days in METHOCEL 0.5% w/v; for SBP (systolic blood pressure): controls 172 +/- 2.0; for HR (heart rate): controls 328 +/- 8.6
Description: The ability of these compounds to lower blood pressure was tested by using animal models with genetic arterial hypertension, in particular, spontaneous hypertensive rats of the Milan (MHS) (Bianchi G., Ferrari P., Barber B., The Milan Hypertensive strain. In Handbook of hypertension. Vol.4: Experimental and genetic models of hypertension. Ed. W. de jong-Elsevier Science Publishers B.V.,1984: 328-349).
The procedure adopted to test the antihypertensive activity of the compounds on the above mentioned model was the following:
systolic blood pressure (SBP) and heart rate (HR) were measured by an indirect tail-cuff method in three-month old hypertensive rats (MHS) before beginning the treatment (basal values). The rats were then subdivided in two groups of at least 7 animals each, one receiving the compound the other, the control group, receiving only the vehicle. The compound, suspended in METHOCEL 0.5% (w/v), was administered daily by mouth, for ten days. SBP and HR were measured daily 6 and 24 hours after the treatment. At the end of the ten day treatment period, a washout period of at least two days was carried out, in order to check for how long the SBP was mantained low or the basal values were re-established.

| SMILES | Binding ^3 H-Ouab. Displacement log IC50 [1] | Inhibitory Activity log IC50 [2] | SBP (systolic blood pressure) [3] | HR (heart rate) [3] | antihypertensive action ([3]; statement in words) |
| --- | --- | --- | --- | --- | --- |
| C[C@]12CC[C@H](OCCO)C[C@H]1CC[C@@H]1[C@@H]2CC[C@]2(C)[C@@](O)(c3ccccc3)CC[C@]12O [Comp. I-ad, 3β-(2-Hydroxyethoxy)-17β-phenyl-5β-androstane-14β,17α-diol] | 5.2 | 4.0 |  |  |  |
| C[C@]12CC[C@H](O)C[C@H]1CC[C@@H]1[C@@H]2CC[C@]2(C)[C@@](O)(c3cccnc3)CC[C@]12O [Comp. 1-bb, 17β-(3-Pyridyl)-5β-androstane-3β,14β,17α-triol] | 5.4 | 4.3 | 154 +/- 3.0 mm Hg | 339 +/- 6.8 beats/min. |  |
| CNCCO[C@H]1CC[C@@]2(C)[C@H](CC[C@@H]3[C@@H]2CC[C@]2(C)[C@@](O)(c4ccccc4)CC[C@]32O)C1 [Comp. I-am, 3β-(2-Methylaminoethoxy)-17β-phenyl-5β-androstane-14β,17α-diol] | 5.9 | 4.8 |  |  |  |
| C[C@]12CC[C@H](O)C[C@H]1CC[C@@H]1[C@@H]2CC[C@]2(C)[C@@](O)(c3ccsc3)CC[C@]12O [Comp. 1-ba, 17β-(3-Thienyl)-5β-androstane-3β,14β,17α-triol] | 5.7 | 4.5 |  |  |  |
| Cc1ncc([C@@]2(O)CC[C@]3(O)[C@@H]4CC[C@@H]5C[C@@H](O)CC[C@]5(C)[C@H]4CC[C@]23C)n1C [Comp. I-be, 17β-(1,2-Dimethyl-5-imidazolyl)-5β-androstane-3β,14β,17α-triol] | 5.4 |  |  |  |  |
| C[C@]12CC[C@H](OCCN3CCCC3)C[C@H]1CC[C@@H]1[C@@H]2CC[C@]2(C)[C@@](OCCN3CCCC3)(c3ccccc3)CC[C@]12O [Comp. I-ai, 3β,17α-Bis(2-(1-pyrrolidinyl)ethoxy)-17β-phenyl-5β-androstan-14β-ol] | 5.0 |  |  |  |  |
| C[C@]12CC[C@H](OCCCN)C[C@H]1CC[C@@H]1[C@@H]2CC[C@]2(C)[C@@](O)(c3ccccc3)CC[C@]12O [Comp. I-ag, 3β-(3-Aminopropoxy)-17β-phenyl-5β-androstane-14β,17α-diol] | 5.9 | 4.6 | 157 +/- 4.2 mm Hg | 330 +/- 9.8 beats/min. |  |
| C[C@]12CC[C@H](O)C[C@H]1CC[C@@H]1[C@@H]2CC[C@]2(C)[C@@](O)(c3ccc(O)cc3)CC[C@]12O [Comp. I-ay, 17β-(4-Hydroxyphenyl)-5β-androstane-3β,14β,17α-triol] | 5.6 | 4.5 |  |  |  |
| C[C@]12CC[C@H](O)C[C@H]1CC[C@@H]1[C@@H]2CC[C@]2(C)[C@@](O)(C3=CC(=O)OC3)CC[C@]12O [Ref. comp., 3β,14β,17α-trihydroxy-5β-card-20(22)-enolide, reference compound] | 5.9 | 5.3 | 174 +/- 2.1 mm Hg | 340 +/- 10.2 beats/min. | do not show antihypertensive action |
| CN(C)c1ccc([C@@]2(O)CC[C@]3(O)[C@@H]4CC[C@@H]5C[C@@H](O)CC[C@]5(C)[C@H]4CC[C@]23C)cc1 [Comp. I-bf, 17β-(4-(N,N-Dimethylaminophenyl))-5β-androstane-3β,14β,17α-triol] | 5.7 | 4.6 |  |  |  |
| CCN(CC)CCO[C@H]1CC[C@@]2(C)[C@H](CC[C@@H]3[C@@H]2CC[C@]2(C)[C@@](O)(c4ccc(OC)cc4)CC[C@]32O)C1 [Comp. I-av, 3β-(2-Diethylaminoethory)-17β-(4-methoxyphenyl)-5β-androstane-14β,17α-diol] | 6.0 | 4.8 |  |  |  |
| C[C@]12CC[C@H](OCC(N)CN)C[C@H]1CC[C@@H]1[C@@H]2CC[C@]2(C)[C@@](O)(c3ccccc3)CC[C@]12O (stereo partly drawn) [Comp. I-ap, 3β-((2RS)-2,3-Diaminopropoxy)-17β-phenyl-5β-androstane-14β,17α-diol] | 5.8 | 4.6 |  |  |  |
| C[C@]12CC[C@H](OCC(O)CO)C[C@H]1CC[C@@H]1[C@@H]2CC[C@]2(C)[C@@](O)(c3ccccc3)CC[C@]12O (stereo partly drawn) [Comp. I-ao, 3β-((2RS)-2,3-Dihydroxypropoxy)-17β-phenyl-5β-androstane-14β,17α-diol] | 5.5 | 4.2 |  |  |  |
| CN(C)CCCO[C@H]1CC[C@@]2(C)[C@H](CC[C@@H]3[C@@H]2CC[C@]2(C)[C@@](O)(c4ccccc4)CC[C@]32O)C1 [Comp. I-ae, 3β-(3-Dimethylaminopropoxy)-17β-phenyl-5β-androstane-14β,17α-diol] | 5.9 | 4.7 |  |  |  |
| C[C@]12CCC(=NNC(=N)N)C[C@H]1CC[C@@H]1[C@@H]2CC[C@]2(C)[C@@](O)(c3ccccc3)CC[C@]12O [Comp. I-ar, 3-Guanidinoimino-17β-phenyl-5β-androstane-14β,17α-diol] | 5.8 | 4.6 |  |  |  |
| C[C@]12CC[C@H](SCCCN)C[C@H]1CC[C@@H]1[C@@H]2CC[C@]2(C)[C@@](O)(c3ccccc3)CC[C@]12O [Comp. I-bj] | 5.7 | 4.6 |  |  |  |
| C[C@]12CC[C@H](O)C[C@H]1CC[C@@H]1[C@@H]2CC[C@]2(C)[C@@](O)(c3ccccc3)CC[C@]12O [Comp. I-ac, 17β-Phenyl-5β-androstane-3β,14β,17α-triol] | 5.4 | 4.1 | 160 +/- 4.5 mm Hg | 331 +/- 8.5 beats/min. |  |
| COc1ccc([C@@]2(O)CC[C@]3(O)[C@@H]4CC[C@@H]5C[C@@H](O)CC[C@]5(C)[C@H]4CC[C@]23C)cc1 [Comp. I-au, 17β-(4-Methoxyphenyl)-5β-androstane-3β,14β,17α-triol] | 5.6 | 4.5 | 156 +/- 4.1 mm Hg | 335 +/- 10.5 beats/min. |  |
